In patent US11447825B2, “In-vitro methods for the detection of autoimmune diseases or conditions” (Universitätsmedizin der Johannes Gutenberg-Universität Mainz, priority 2015, dated 2022):

Tests used:
Type in all cases: cell-based, human
[1] = system: T-cells cocultured with Treg; experiment: Suppressor assay: T-cell proliferation with or without Treg (3H-Tdr incorporation); details: for Treg-mediated suppression in cocultures in presence of exogenous IL-6: HC T-cells with Treg plus IL-6 plus test substance, anti-IL-6R mAb 30 ng/ml, Akt VIII inhibitor 0.1 μM, PPARA agonist 0.01 μM
Procedure: Treg-depleted PBMC (10^5 cells) were stimulated with 0.5 μg/ml anti-CD3 mAb (OKT-3) and cultured in presence or absence of different Treg ratios (Treg:T-cells 1:1 to 1:64) (Jonuleit et al., 2001; Kubach et al., 2007). T-cell proliferation was determined on day three of cultures by addition of 37 kBq/well ^3H-Tdr for additional 16 h. Some experiments were performed by supplementing cultures with neutralizing mAb against anti-IL-6R (30 ng/ml; Tocilizumab; Roacterma; Roche) or supplemented with IL-6 (100 ng/ml or 1000 IU/ml; CellGenix). PKB/c-Akt VIII inhibitor (0.1 μM; Calbiochem, Isozyme-selective, Akt1/2) was added into individual assays. Some experiments were performed by supplementing cultures with PPARA antagonists (GW6471, Tocris, 0.05 μM) or PPARA agonists (GW7646, Tocris, 0.01 μM) together with IL-6 (100 ng/ml or 1000 IU/ml; CellGenix). For flow cytometric analysis of proliferating T-cells Treg-depleted PBMC were washed in warm PBS and stained with 1 μM CFSE and afterwards cocultured with or without Treg (ratio 1:1) and stimulated with 0.5 μg/ml anti-CD3 mAb. Proliferation was assessed on day 3 after excluding dead cells. Analysis was performed on LSRII (BD Bioscience) and evaluated using DIVA software (BD Bioscience).

PKB/c-Akt = PKB/c-Akt phosphorylation in CD3+ T-cells by flow cytometry; details: HC T-cells; for phosphorylation of PKB/c-Akt in presence of IL-6: 24 h with IL-6 plus IL-6R mAb or VIII inhibitor (0.01, 0.1 and 1 μM)
Procedure: For surface staining of PBMC or T-cells indicated antibodies were incubated for 30 min at 4° C. and washed twice with PBS. Stained cells were measured on LSRII with FACS Diva Software (BD Bioscience). To detect phosphorylated PKB/c-Akt (anti-Akt, pS473, BD Phosflow), cells were fixed at 37° C. (BD Cytofix™ Buffer); permeabilized (BD™ Phosflow Perm Buffer) washed twice with BD Pharmingen™ stain buffer and stained for the indicated antibody according to manufacturer's instructions.
A) Upper panel: CD3^+ T-cells and Treg were coculture in presence (grey) or absence (black) of IL-6 and stimulated with anti-CD3 mAb. […] One of four independent experiments is shown. Lower panel: PBMC from HC were cultured for 24 h with (grey) or without (black) IL-6, washed extensively and CD4^+ or CD8^+ T-cells were isolated. Cells were left unstimulated or were activated with plate-bound anti-CD3 and anti-CD28 mAb for four hours. Shown are expression levels of (PPARGC1A) PGC-1α mRNA in activated CD4^+ and CD8^+ T-cells (TC) normalized to resting T-cells. β-Actin used as housekeeping gene. Bars represent mean of four experiments, p-values relative to TC without IL-6. B) PKB/c-Akt phosphorylation was analyzed by flow cytometry within CD3^+ T-cells after 24 h of culture with (black) or without IL-6 (grey). C) Flow cytometric determination of PKB/c-Akt phosphorylation. […] Shown is the mean fluorescence intensity (MFI) of pPKB/c-Akt in T-cells, one representative result of five independent experiments. […] PKB/c-Akt phosphorylation was analyzed by flow cytometry within CD3^+ T-cells. […]
A) PBMC from HC were cultured for 24 h with media (black), PPARα antagonist (blue) or PPARα agonist (green), washed extensively and expression level of PGC-1α mRNA in activated T-cells was detected by qRT-PCR. β-Actin used as housekeeping gene. […] B) PKB/c-Akt phosphorylation was analysed by flow cytometry within CD3^+ T-cells after 24 h of culture with media (black), PPARα agonist (green) or PPARα antagonist (blue). […]

PGC-1α = PGC-1α (PPARGC1A) mRNA expression in activated T-cells by qRT-PCR; details: HC PBMC 24 h with IL-6, then anti-CD3/anti-CD28 for four hours; normalized to resting T-cells
Procedure: RNA was extracted from 2×10^6 cells using Rneasy Kit (Qiagen) according to manufacturer's instructions. cDNA was generated by reverse transcription with Sensiscript RT Kit (Qiagen) and amplified by quantitative RT-PCR (qRT-PCR, 7300 Real Time PCR System (Applied Biosystem) and the QuantiFAST PCR Kit (Qiagen). Relative IL-6 mRNA (QuantiTect Primer, Qiagen) expression levels were normalized to EF1-α or β-Actin. Relative PPARGC1α, IRF8, FGF19, HNF4A, Hdac, RORA mRNA was analyzed with QuantiTect Primer Assay (Qiagen) according to manufacturer's instructions and expression levels were normalized to β-ACT.
A) Upper panel: CD3^+ T-cells and Treg were coculture in presence (grey) or absence (black) of IL-6 and stimulated with anti-CD3 mAb. […] One of four independent experiments is shown. […] B) PKB/c-Akt phosphorylation was analyzed by flow cytometry within CD3^+ T-cells after 24 h of culture with (black) or without IL-6 (grey). […] Shown is the mean fluorescence intensity (MFI) of pPKB/c-Akt in T-cells, one representative result of five independent experiments. […] PKB/c-Akt phosphorylation was analyzed by flow cytometry within CD3^+ T-cells. […]
A) PBMC from HC were cultured for 24 h with media (black), PPARα antagonist (blue) or PPARα agonist (green), washed extensively and expression level of PGC-1α mRNA in activated T-cells was detected by qRT-PCR. β-Actin used as housekeeping gene. […]

T-cells = experiment: Toxicity of PPARα modifiers in cell culture; details: incubation with PPARα antagonist (Supplemental FIG. 4)
Procedure: Human cells were cultured in X-VIVO-15 (Lonza, Belgium). Flow cytometric analysis was performed using the following antibodies: anti-human CD3 (SK7), anti-human CD3 (UCHT1), anti-human CD4 (RPA-T4), anti-human CD8 (SK1), anti-human CD14 (M5E2), anti-human CD19 (HIB19), anti-human CD25 (M-A251), all from BD Pharmingen, anti-human CD8 (BW 135/80, Miltenyi Biotec), Fluorokine® biotinylated human Interleukin-6 (R&D systems). Cell viability during flow cytometric analysis was determined using 7-AAD and eFluor506 (eBioscience). For blockade experiments, cultures were supplemented with neutralizing antibody against anti-IL-6R (Tocilizumab), PKB/c-Akt VIII inhibitor (Calbiochem), PPARA antagonists (GW6471, Tocris, 0.05 μM) or PPARA agonists (GW7646, Tocris, 0.01 μM) together with IL-6 (100 ng/ml or 1000 IU/ml; CellGenix).

Compound: anti-IL-6R mAb: neutralizing mAb against anti-IL-6R (Tocilizumab; Roacterma; Roche)
- Treg-mediated suppression in cocultures in presence of exogenous IL-6 [1]: restored IL-6-induced Treg resistance
- phosphorylation of PKB/c-Akt in presence of IL-6 (PKB/c-Akt): inhibited phosphorylation of PKB/c-Akt

Compound: O=c1[nH]c2ccccc2n1C1CCN(Cc2ccc(-c3nc4cc5[nH]cnc5cc4nc3-c3ccccc3)cc2)CC1 [c-Akt inhibitor VIII]
- Treg-mediated suppression in cocultures in presence of exogenous IL-6 [1]: restored IL-6-induced Treg resistance
- phosphorylation of PKB/c-Akt in presence of IL-6 (PKB/c-Akt): inhibited phosphorylation of PKB/c-Akt

Compound: IL-6: exogenous cytokine IL-6 (100 ng/ml or 1000 IU/ml; CellGenix)
- control of T-cells by Treg in suppressor cocultures ([1]; Treg-sensitive T-cells from HC with Treg, anti-CD3 mAb, IL-6 supplemented (100 ng/ml or 1000 IU/ml), day three): prevented efficient control of T-cells by Treg
- PGC-1α expression in activated CD4+ T-cells (PGC-1α): down regulated PGC-1α expression
- PGC-1α expression in activated CD8+ T-cells (PGC-1α): prevented the upregulation of PGC-1α
- phosphorylation of PKB/c-Akt in T-cells (PKB/c-Akt; 24 h culture with IL-6): enhanced phosphorylation of PKB/c-Akt

Compound: CCC(=O)NC[C@H](Cc1ccc(OCCc2nc(-c3ccccc3)oc2C)cc1)N/C(C)=C\C(=O)c1ccc(C(F)(F)F)cc1 [PPARα antagonist]
- Treg resistance in cocultures without IL-6 ([1]; T-cells and Treg, anti-CD3 mAb, PPARA antagonist 0.05 μM alone): Treg resistance could be induced
- T-cell proliferation in absence of Treg ([1]; no Treg, agonist 0.01 μM, antagonist 0.05 μM): did not influence the T-cell proliferation significantly
- toxicity (T-cells): without inducing toxicity
